Measurements published in article PMC12472322, “Structure–Activity Relationship Study of 3-Alkynyl-6-aryl-isothiazolo[4,3-b]pyridines as Dual Inhibitors of the Lipid Kinases PIKfyve and PIP4K2C” (Pharmaceuticals, 2025).

Legend:
PIKfyve = target: T1, PIKfyve (Homo sapiens, UniProt Q9Y2I7); test: biochemical PIKfyve mobility shift assay (Nanosyn)
T1 construct: purchased Nanosyn, Santa Clara, CA, USA (contract assay service)

[1] = cell viability (AlamarBlue) in SARS-CoV-2-infected Vero E6/TMPRSS2 cells; type: cell-based; settings: African green monkey, Vero E6/TMPRSS2 cells infected with SARS-CoV-2, half-maximal cytotoxic concentration, read-out: SARS-CoV2 CC50
VEEV (TC-83) = test: microbe, parasite or virus in culture; type: cell-based; settings: Venezuelan equine encephalitis virus, U-87 MG, 18 h, read-out: VEEV (TC-83) EC50
SARS-CoV-2 = test: microbe, parasite or virus in culture; type: cell-based, severe acute respiratory syndrome coronavirus 2; settings: Severe acute respiratory syndrome coronavirus 2, VeroE6/TMPRSS2, 24 h; read-out: SARS-CoV2 EC50
U-87 MG cells = settings: half-maximal cytotoxic concentration

T1 sequence (Q9Y2I7 whole entry): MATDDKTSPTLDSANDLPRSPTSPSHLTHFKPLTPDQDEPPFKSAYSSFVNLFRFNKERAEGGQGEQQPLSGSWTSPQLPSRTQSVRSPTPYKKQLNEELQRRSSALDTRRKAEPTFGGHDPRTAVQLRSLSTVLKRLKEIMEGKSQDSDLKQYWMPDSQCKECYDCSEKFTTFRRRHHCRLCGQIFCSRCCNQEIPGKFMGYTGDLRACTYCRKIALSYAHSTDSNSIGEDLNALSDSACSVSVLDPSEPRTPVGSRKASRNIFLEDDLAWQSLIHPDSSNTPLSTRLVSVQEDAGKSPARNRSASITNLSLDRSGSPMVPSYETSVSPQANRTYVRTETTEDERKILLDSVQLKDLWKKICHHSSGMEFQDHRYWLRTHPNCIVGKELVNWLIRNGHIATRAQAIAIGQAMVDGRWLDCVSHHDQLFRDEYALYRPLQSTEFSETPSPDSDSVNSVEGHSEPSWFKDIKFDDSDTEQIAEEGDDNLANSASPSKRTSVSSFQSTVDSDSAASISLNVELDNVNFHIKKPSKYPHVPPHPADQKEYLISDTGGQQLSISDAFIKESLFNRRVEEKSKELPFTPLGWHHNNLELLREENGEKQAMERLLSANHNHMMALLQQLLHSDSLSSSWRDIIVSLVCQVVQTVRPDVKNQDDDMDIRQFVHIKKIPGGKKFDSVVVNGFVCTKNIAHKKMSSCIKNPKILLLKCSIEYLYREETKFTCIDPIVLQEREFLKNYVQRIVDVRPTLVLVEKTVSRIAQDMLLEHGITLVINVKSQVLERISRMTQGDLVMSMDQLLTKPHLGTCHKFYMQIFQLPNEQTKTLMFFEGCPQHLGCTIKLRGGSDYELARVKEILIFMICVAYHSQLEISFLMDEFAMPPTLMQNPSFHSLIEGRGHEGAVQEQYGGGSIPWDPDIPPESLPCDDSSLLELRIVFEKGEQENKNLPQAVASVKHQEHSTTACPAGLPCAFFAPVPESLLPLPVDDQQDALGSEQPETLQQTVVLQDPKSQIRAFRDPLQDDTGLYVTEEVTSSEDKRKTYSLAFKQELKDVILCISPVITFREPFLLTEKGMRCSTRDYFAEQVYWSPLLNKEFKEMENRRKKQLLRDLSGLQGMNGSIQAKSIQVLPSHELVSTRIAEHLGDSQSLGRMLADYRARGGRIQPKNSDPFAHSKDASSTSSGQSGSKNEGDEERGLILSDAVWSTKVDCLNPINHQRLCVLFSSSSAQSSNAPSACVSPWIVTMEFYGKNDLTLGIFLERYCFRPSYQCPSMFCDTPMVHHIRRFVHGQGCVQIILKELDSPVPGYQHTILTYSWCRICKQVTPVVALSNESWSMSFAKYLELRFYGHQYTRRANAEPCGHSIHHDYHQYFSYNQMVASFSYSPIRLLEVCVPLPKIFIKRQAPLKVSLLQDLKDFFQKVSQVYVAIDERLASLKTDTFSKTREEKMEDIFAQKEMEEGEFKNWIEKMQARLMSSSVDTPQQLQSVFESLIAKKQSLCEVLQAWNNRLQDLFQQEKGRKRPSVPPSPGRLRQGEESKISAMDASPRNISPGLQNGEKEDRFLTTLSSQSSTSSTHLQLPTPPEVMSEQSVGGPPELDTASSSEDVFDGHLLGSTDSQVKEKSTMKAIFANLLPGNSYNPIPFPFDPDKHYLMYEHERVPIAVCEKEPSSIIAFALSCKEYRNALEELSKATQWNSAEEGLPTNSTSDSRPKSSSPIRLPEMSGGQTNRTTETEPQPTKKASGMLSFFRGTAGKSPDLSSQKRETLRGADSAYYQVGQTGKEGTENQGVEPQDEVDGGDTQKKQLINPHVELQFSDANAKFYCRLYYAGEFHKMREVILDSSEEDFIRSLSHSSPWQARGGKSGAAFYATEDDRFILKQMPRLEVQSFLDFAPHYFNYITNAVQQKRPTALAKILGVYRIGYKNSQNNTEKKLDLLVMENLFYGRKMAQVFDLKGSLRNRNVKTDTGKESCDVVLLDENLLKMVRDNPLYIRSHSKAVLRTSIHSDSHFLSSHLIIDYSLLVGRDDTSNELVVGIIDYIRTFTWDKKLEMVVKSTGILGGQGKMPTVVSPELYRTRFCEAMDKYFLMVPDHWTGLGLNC

SMILES	IC50 (PIKfyve; Tables 1-4 and text)	further results
O=C(c1cccc(-c2cnc3c(C#Cc4cccnc4)snc3c2)c1)N1CCCC1 [Compound 3r, (3-(3-(Pyridin-3-ylethynyl)isothiazolo[4,3-b]pyridin-6-yl)phenyl)(pyrrolidin-1-yl)methanone]	6.1 nM	
COc1ccc(-c2cnc3c(/C=C(/c4cccnc4)N4CCOCC4)snc3c2)cc1OC [Compound 23c, (Z)-4-(2-(6-(3,4-Dimethoxyphenyl)isothiazolo[4,3-b]pyridin-3-yl)-1-(pyridin-3-yl)vinyl)morpholine]	613 nM	
COc1ccc(-c2cnc3c(C#Cc4ccncc4)snc3c2)cc1OC [Compound 7x, 6-(3,4-Dimethoxyphenyl)-3-(pyridin-4-ylethynyl)isothiazolo[4,3-b]pyridine]	75 nM	
COc1ccc(-c2cnc3c(C#Cc4ccc(F)nc4)snc3c2)cc1OC [Compound 7j, 6-(3,4-Dimethoxyphenyl)-3-((6-fluoropyridin-3-yl)ethynyl)isothiazolo[4,3-b]pyridine]	120 nM	
COc1ccc(C#Cc2snc3cc(-c4ccc(OC)c(OC)c4)cnc23)c(OC)n1 [Compound 7u, 6-(3,4-Dimethoxyphenyl)-3-((2,6-dimethoxypyridin-3-yl)ethynyl)isothiazolo[4,3-b]pyridine]	5670 nM	
COc1ccc(-c2cnc3c(/C=C(\SCCO)c4cccnc4)snc3c2)cc1OC [Compound 23d, (Z)-2-((2-(6-(3,4-Dimethoxyphenyl)isothiazolo[4,3-b]pyridin-3-yl)-1-(pyridin-3-yl)vinyl)thio)ethan-1-ol]	1540 nM	
COc1ccc(-c2cnc3c(C#Cc4ccc(C)nc4)snc3c2)cc1OC [Compound 7g, 6-(3,4-Dimethoxyphenyl)-3-((6-methylpyridin-3-yl)ethynyl)isothiazolo[4,3-b]pyridine]	360 nM	
C(#Cc1snc2cccnc12)c1cccnc1 [Compound 2a, 3-(Pyridin-3-ylethynyl)isothiazolo[4,3-b]pyridine]	1150 nM	
CN(C)C(=O)c1cccc(-c2cnc3c(C#Cc4cccnc4)snc3c2)c1 [Compound 3q, N,N-Dimethyl-3-(3-(pyridin-3-ylethynyl)isothiazolo[4,3-b]pyridin-6-yl)benzamide]	18 nM	
COC(=O)c1cncc(C#Cc2snc3cc(-c4ccc(OC)c(OC)c4)cnc23)c1 [Compound 7m, Methyl 5-((6-(3,4-dimethoxyphenyl)isothiazolo[4,3-b]pyridin-3-yl)ethynyl)nicotinate]	120 nM	CC50 [1]: > 20000 nM; EC50 (VEEV (TC-83)): 1160 ± 1 nM; EC50 (SARS-CoV-2): 2560 ± 860 nM; VEEV (TC-83) CC50 (U-87 MG cells): >10000 nM
O=C(c1ccc(-c2cnc3c(C#Cc4cccnc4)snc3c2)cc1)N1CCCC1 [Compound 3p, (4-(3-(Pyridin-3-ylethynyl)isothiazolo[4,3-b]pyridin-6-yl)phenyl)(pyrrolidin-1-yl)methanone]	20 nM	
COc1ccc(-c2cnc3c(C#CCNc4ccccc4)snc3c2)cc1OC [Compound 13, N-(3-(6-(3,4-Dimethoxyphenyl)isothiazolo[4,3-b]pyridin-3-yl)prop-2-yn-1-yl)aniline]	184 nM	
COc1ccc(-c2cnc3c(C#Cc4ccccc4)snc3c2)cc1OC [Compound 7b, 6-(3,4-Dimethoxyphenyl)-3-(phenylethynyl)isothiazolo[4,3-b]pyridine]	59 nM	
COc1ccc(-c2cnc3c(C#Cc4ccc(C(F)(F)F)nc4)snc3c2)cc1OC [Compound 7n, 6-(3,4-Dimethoxyphenyl)-3-((6-(trifluoromethyl)pyridin-3-yl)ethynyl)isothiazolo[4,3-b]pyridine]	680 nM	
COc1ccc(-c2cnc3c(CCc4cccnc4)snc3c2)cc1OC [Compound 22, 6-(3,4-Dimethoxyphenyl)-3-(2-(pyridin-3-yl)ethyl)isothiazolo[4,3-b]pyridine]	33 nM	
CCNC(=O)c1ccc(-c2cnc3c(C#Cc4cccnc4)snc3c2)cc1 [Compound 3n, N-Ethyl-4-(3-(pyridin-3-ylethynyl)isothiazolo[4,3-b]pyridin-6-yl)benzamide]	3.5 nM	
CCOc1ncccc1C#Cc1snc2cc(-c3ccc(OC)c(OC)c3)cnc12 [Compound 7s, 6-(3,4-Dimethoxyphenyl)-3-((2-ethoxypyridin-3-yl)ethynyl)isothiazolo[4,3-b]pyridine]	110 nM	
C(#Cc1snc2cc(-c3ccc(OCCN4CCOCC4)cc3)cnc12)c1cccnc1 [Compound 5a, 4-(2-(4-(3-(Pyridin-3-ylethynyl)isothiazolo[4,3-b]pyridin-6-yl)phenoxy)ethyl)morpholine]	7.1 nM	CC50 [1]: > 20000 nM; EC50 (VEEV (TC-83)): 310 ± 10 nM; EC50 (SARS-CoV-2): 5630 ± 970 nM; VEEV (TC-83) CC50 (U-87 MG cells): >10000 nM
COCCOc1ccc(-c2cnc3c(C#Cc4cccnc4)snc3c2)cc1 [Compound 3j, 6-(4-(2-Methoxyethoxy)phenyl)-3-(pyridin-3-ylethynyl)isothiazolo[4,3-b]pyridine]	2.1 nM	
CCCC#Cc1snc2cc(-c3ccc(OC)c(OC)c3)cnc12 [Compound 7a, 6-(3,4-Dimethoxyphenyl)-3-(pent-1-yn-1-yl)isothiazolo[4,3-b]pyridine]	850 nM	fold less potent on PIKfyve relative to RMC-113 (PIKfyve; ratio of IC50 values): 100 fold

SMILES	IC50 (PIKfyve; Tables 1-4 and text)	further results
COc1ccc(-c2cnc3c(C#CCNS(=O)(=O)c4ccccc4)snc3c2)cc1OC [Compound 11b, N-(3-(6-(3,4-Dimethoxyphenyl)isothiazolo[4,3-b]pyridin-3-yl)prop-2-yn-1-yl)benzenesulfonamide]	1840 nM	
CN(C)C(=O)c1ccc(-c2cnc3c(C#Cc4cccnc4)snc3c2)cc1 [Compound 3o, N,N-Dimethyl-4-(3-(pyridin-3-ylethynyl)isothiazolo[4,3-b]pyridin-6-yl)benzamide]	25 nM	
COc1cccc(C#Cc2snc3cc(-c4ccc(OC)c(OC)c4)cnc23)c1 [Compound 7f, 6-(3,4-Dimethoxyphenyl)-3-((3-methoxyphenyl)ethynyl)isothiazolo[4,3-b]pyridine]	21 nM	CC50 [1]: < 10000 nM; EC50 (VEEV (TC-83)): 4790 ± 240 nM; VEEV (TC-83) CC50 (U-87 MG cells): >10000 nM
COc1ccc(C#Cc2snc3cc(-c4ccc(OC)c(OC)c4)cnc23)cn1 [Compound 7h, 6-(3,4-Dimethoxyphenyl)-3-((6-methoxypyridin-3-yl)ethynyl)isothiazolo[4,3-b]pyridine]	590 nM	
COc1ccc(-c2cnc3c(C#Cc4cc(F)cnc4OC)snc3c2)cc1OC [Compound 7t, 6-(3,4-Dimethoxyphenyl)-3-((5-fluoro-2-methoxypyridin-3-yl)ethynyl)isothiazolo[4,3-b]pyridine]	> 10000 nM	
COc1ccc(-c2cnc3c(C#Cc4cc(C)cnc4F)snc3c2)cc1OC [Compound 7v, 6-(3,4-Dimethoxyphenyl)-3-((2-fluoro-5-methylpyridin-3-yl)ethynyl)isothiazolo[4,3-b]pyridine]	42 nM	
COc1ccc(-c2cnc3c(NC(=O)c4cccnc4)snc3c2)cc1OC [Compound 20, N-(6-(3,4-Dimethoxyphenyl)isothiazolo[4,3-b]pyridin-3-yl)nicotinamide]	4290 nM	PIKfyve inhibition in words (PIKfyve): practically inactive
COc1ccc(-c2cnc3c(C#Cc4ccccn4)snc3c2)cc1OC [Compound 7y, 6-(3,4-Dimethoxyphenyl)-3-(pyridin-2-ylethynyl)isothiazolo[4,3-b]pyridine]	30 nM	
COc1ccc(-c2cnc3c(C#CCNC(=O)c4ccccc4)snc3c2)cc1OC [Compound 11a, N-(3-(6-(3,4-Dimethoxyphenyl)isothiazolo[4,3-b]pyridin-3-yl)prop-2-yn-1-yl)benzamide]	2040 nM	
CC(C)Oc1ccc(-c2cnc3c(C#Cc4cccnc4)snc3c2)cc1 [Compound 3e, 6-(4-Isopropoxyphenyl)-3-(pyridin-3-ylethynyl)isothiazolo[4,3-b]pyridine]	20 nM	
COc1ccc(-c2cnc3c(-c4cccnc4)snc3c2)cc1OC [Compound 17, 6-(3,4-Dimethoxyphenyl)-3-(pyridin-3-yl)isothiazolo[4,3-b]pyridine]	602 nM	
COc1ccc(-c2cnc3c(NCc4cccnc4)snc3c2)cc1OC [Compound 15, 6-(3,4-Dimethoxyphenyl)-N-(pyridin-3-ylmethyl)isothiazolo[4,3-b]pyridin-3-amine]	> 10000 nM	PIKfyve inhibition in words (PIKfyve): practically inactive
CN(C)c1ccc(-c2cnc3c(C#Cc4cccnc4)snc3c2)cc1 [Compound 3d, N,N-Dimethyl-4-(3-(pyridin-3-ylethynyl)isothiazolo[4,3-b]pyridin-6-yl)aniline]	2.2 nM	
COc1ccc(-c2cnc3c(C#CCNC(=O)Nc4ccccc4)snc3c2)cc1OC [Compound 11c, 1-(3-(6-(3,4-Dimethoxyphenyl)isothiazolo[4,3-b]pyridin-3-yl)prop-2-yn-1-yl)-3-phenylurea]	> 10000 nM	
COc1ccc(-c2cnc3c(/C=C(\OCCN(C)C)c4cccnc4)snc3c2)cc1OC [Compound 23b]	309 nM	
COc1ccc(-c2cnc3c(C#Cc4cccc(Cl)c4)snc3c2)cc1OC [Compound 7d, 6-(3,4-Dimethoxyphenyl)-3-((3-chlorophenyl)ethynyl)isothiazolo[4,3-b]pyridine]	39 nM	
Cc1ccccc1-c1cnc2c(C#Cc3cccnc3)snc2c1 [Compound 3c, 3-(Pyridin-3-ylethynyl)-6-(2-tolyl)isothiazolo[4,3-b]pyridine]	8.2 nM	IC50 (PIKfyve; values given in text in nM): 8 nM
CO/C(=C\c1snc2cc(-c3ccc(OC)c(OC)c3)cnc12)c1cccnc1 [Compound 23a, (Z)-6-(3,4-Dimethoxyphenyl)-3-(2-methoxy-2-(pyridin-3-yl)vinyl)isothiazolo[4,3-b]pyridine]	525 nM	
COc1ccc(-c2cnc3c(C#Cc4ccc(F)cc4)snc3c2)cc1OC [Compound 7c, 6-(3,4-Dimethoxyphenyl)-3-((4-fluorophenyl)ethynyl)isothiazolo[4,3-b]pyridine]	250 nM	
